Measurements as given in PubChem BioAssay (NCI).
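Each compound was tested at five concentrations against cells in 96-well plates for 48 hours. At the GI50, growth is halved. TGI: total growth inhibition.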

Legend:
Assay in all cases: NCI anticancer screen, dose series, 48 h
UO-31 renal = test system: UO-31 renal
RPMI-8226 leukemia = test system: RPMI-8226 leukemia
CCRF-CEM leukemia = test system: CCRF-CEM leukemia
EKVX NSCLC = test system: EKVX NSCLC
KM12 colon = test system: KM12 colon
SF-539 CNS = test system: SF-539 CNS
SK-MEL-5 melanoma = test system: SK-MEL-5 melanoma
SW-620 colon = test system: SW-620 colon
IGROV1 ovarian = test system: IGROV1 ovarian
A498 renal = test system: A498 renal
HCC-2998 colon = test system: HCC-2998 colon
LOX IMVI melanoma = test system: LOX IMVI melanoma
RXF 393 renal = test system: RXF 393 renal
MDA-MB-468 breast = test system: MDA-MB-468 breast
M14 melanoma = test system: M14 melanoma
HS 578T breast = test system: HS 578T breast
MDA-MB-435 = test system: MDA-MB-435
NCI-H23 lung = test system: NCI-H23 lung
DU-145 prostate = test system: DU-145 prostate
OVCAR-5 ovarian = test system: OVCAR-5 ovarian
HL-60(TB) leukemia = test system: HL-60(TB) leukemia
MDA-MB-231 breast = test system: MDA-MB-231 breast
COLO 205 colon = test system: COLO 205 colon
CAKI-1 renal = test system: CAKI-1 renal
MALME-3M melanoma = test system: MALME-3M melanoma
HCT-15 colon = test system: HCT-15 colon
MOLT-4 leukemia = test system: MOLT-4 leukemia
NCI/ADR-RES ovarian = test system: NCI/ADR-RES ovarian
PC-3 prostate = test system: PC-3 prostate
T-47D breast = test system: T-47D breast
SN12C renal = test system: SN12C renal
UACC-62 melanoma = test system: UACC-62 melanoma
NCI-H522 lung = test system: NCI-H522 lung
NCI-H460 lung = test system: NCI-H460 lung
SF-268 CNS = test system: SF-268 CNS
SK-MEL-2 melanoma = test system: SK-MEL-2 melanoma
NCI-H226 lung = test system: NCI-H226 lung
SF-295 CNS = test system: SF-295 CNS
U251 CNS = test system: U251 CNS
SK-MEL-28 melanoma = test system: SK-MEL-28 melanoma
K-562 leukemia = test system: K-562 leukemia
A549 NSCLC = test system: A549 NSCLC
ACHN renal = test system: ACHN renal
OVCAR-4 ovarian = test system: OVCAR-4 ovarian
HOP-62 NSCLC = test system: HOP-62 NSCLC
HCT-116 colon = test system: HCT-116 colon
TK-10 renal = test system: TK-10 renal
OVCAR-8 ovarian = test system: OVCAR-8 ovarian
SK-OV-3 ovarian = test system: SK-OV-3 ovarian
MCF7 breast = test system: MCF7 breast
786-0 renal = test system: 786-0 renal
BT-549 breast = test system: BT-549 breast
HT29 colon = test system: HT29 colon
SNB-19 CNS = test system: SNB-19 CNS
UACC-257 melanoma = test system: UACC-257 melanoma
SR leukemia = test system: SR leukemia
OVCAR-3 ovarian = test system: OVCAR-3 ovarian
HOP-92 NSCLC = test system: HOP-92 NSCLC

In the case of `Cc1cc2c(c(O)c1Br)-c1ncoc1C(=O)[C@]1(C)CC[C@H](C(C)C)[C@H]21`, the GI50 (UO-31 renal) is reported as 5 µM, the TGI (UO-31 renal) is reported as 24.8 µM and the GI50 (RPMI-8226 leukemia) is reported as 3.35 µM. For the same molecule, the TGI (RPMI-8226 leukemia) was 15.7 µM, the GI50 (CCRF-CEM leukemia) was 4.14 µM and the TGI (CCRF-CEM leukemia) was 27.1 µM. It also gave a GI50 (EKVX NSCLC) of 6.77 µM, a TGI (EKVX NSCLC) of 28.6 µM and a GI50 (KM12 colon) of 3.49 µM. It also gave a TGI (KM12 colon) of 35.6 µM, a GI50 (SF-539 CNS) of 4.08 µM and a TGI (SF-539 CNS) of 14.9 µM. The GI50 (SK-MEL-5 melanoma) was 2950 nM, the TGI (SK-MEL-5 melanoma) was 10.3 µM and the GI50 (SW-620 colon) was 3.38 µM. The TGI (SW-620 colon) was 17 µM, the GI50 (IGROV1 ovarian) was 4.42 µM and the TGI (IGROV1 ovarian) was 82.4 µM. It also gave a GI50 (A498 renal) of over 100 µM, a TGI (A498 renal) of over 100 µM and a GI50 (HCC-2998 colon) of 4.22 µM. The TGI (HCC-2998 colon) was 17.7 µM, the GI50 (LOX IMVI melanoma) was 3.71 µM and the TGI (LOX IMVI melanoma) was 14.5 µM. The GI50 (RXF 393 renal) was 4.16 µM, the TGI (RXF 393 renal) was 17.7 µM and the GI50 (MDA-MB-468 breast) was 2140 nM. The TGI (MDA-MB-468 breast) was 6.63 µM, the GI50 (M14 melanoma) was 2850 nM and the TGI (M14 melanoma) was 14 µM. It also gave a GI50 (HS 578T breast) of 5.34 µM, a TGI (HS 578T breast) of over 100 µM and a GI50 (MDA-MB-435) of 2070 nM. It also gave a TGI (MDA-MB-435) of 5.23 µM, a GI50 (NCI-H23 lung) of 4.64 µM and a TGI (NCI-H23 lung) of 47.3 µM. It also gave a GI50 (DU-145 prostate) of 5 µM, a TGI (DU-145 prostate) of 21.2 µM and a GI50 (OVCAR-5 ovarian) of 5.36 µM. For the same molecule, the TGI (OVCAR-5 ovarian) was 23.1 µM, the GI50 (HL-60(TB) leukemia) was 2190 nM and the TGI (HL-60(TB) leukemia) was 6.69 µM. For the same molecule, the GI50 (MDA-MB-231 breast) was 4.36 µM, the TGI (MDA-MB-231 breast) was 18.8 µM and the GI50 (COLO 205 colon) was 2610 nM. It also gave a TGI (COLO 205 colon) of 10.3 µM, a GI50 (CAKI-1 renal) of 4.73 µM and a TGI (CAKI-1 renal) of 33.6 µM. The GI50 (MALME-3M melanoma) was 2610 nM, the TGI (MALME-3M melanoma) was 11.8 µM and the GI50 (HCT-15 colon) was 2620 nM. For the same molecule, the TGI (HCT-15 colon) was 11.8 µM, the GI50 (MOLT-4 leukemia) was 3.18 µM and the TGI (MOLT-4 leukemia) was 14.9 µM. The GI50 (NCI/ADR-RES ovarian) was 2820 nM, the TGI (NCI/ADR-RES ovarian) was 9.19 µM and the GI50 (PC-3 prostate) was 3.1 µM. For the same molecule, the TGI (PC-3 prostate) was 20.5 µM, the GI50 (T-47D breast) was 2890 nM and the TGI (T-47D breast) was 21.2 µM. For the same molecule, the GI50 (SN12C renal) was 3.19 µM, the TGI (SN12C renal) was 12.9 µM and the GI50 (UACC-62 melanoma) was 2460 nM. It also gave a TGI (UACC-62 melanoma) of 8.58 µM, a GI50 (NCI-H522 lung) of 2180 nM and a TGI (NCI-H522 lung) of 6.24 µM. It also gave a GI50 (NCI-H460 lung) of 3.33 µM, a TGI (NCI-H460 lung) of 14.5 µM and a GI50 (SF-268 CNS) of 4.27 µM. It also gave a TGI (SF-268 CNS) of 34.3 µM, a GI50 (SK-MEL-2 melanoma) of 2510 nM and a TGI (SK-MEL-2 melanoma) of 8.15 µM. The GI50 (NCI-H226 lung) was 5.88 µM, the TGI (NCI-H226 lung) was 22.1 µM and the GI50 (SF-295 CNS) was 3.31 µM. It also gave a TGI (SF-295 CNS) of 18 µM, a GI50 (U251 CNS) of 4.34 µM and a TGI (U251 CNS) of 17.1 µM. The GI50 (SK-MEL-28 melanoma) was 4.37 µM, the TGI (SK-MEL-28 melanoma) was 18.4 µM and the GI50 (K-562 leukemia) was 2930 nM. The TGI (K-562 leukemia) was 11.6 µM, the GI50 (A549 NSCLC) was 4.33 µM and the TGI (A549 NSCLC) was 29.6 µM. It also gave a GI50 (ACHN renal) of 10.1 µM, a TGI (ACHN renal) of 34 µM and a GI50 (OVCAR-4 ovarian) of 4.1 µM. The TGI (OVCAR-4 ovarian) was 33.7 µM, the GI50 (HOP-62 NSCLC) was 4.45 µM and the TGI (HOP-62 NSCLC) was 21.7 µM. For the same molecule, the GI50 (HCT-116 colon) was 3.17 µM, the TGI (HCT-116 colon) was 13.8 µM and the GI50 (TK-10 renal) was 9.26 µM. For the same molecule, the TGI (TK-10 renal) was 74.3 µM, the GI50 (OVCAR-8 ovarian) was 5.45 µM and the TGI (OVCAR-8 ovarian) was 22.4 µM. It also gave a GI50 (SK-OV-3 ovarian) of 6.72 µM, a TGI (SK-OV-3 ovarian) of over 100 µM and a GI50 (MCF7 breast) of 3.45 µM. For the same molecule, the TGI (MCF7 breast) was 15.2 µM, the GI50 (786-0 renal) was 7.18 µM and the TGI (786-0 renal) was 21.9 µM. The GI50 (BT-549 breast) was 4.64 µM, the TGI (BT-549 breast) was 17.1 µM and the GI50 (HT29 colon) was 2770 nM. For the same molecule, the TGI (HT29 colon) was 16 µM, the GI50 (SNB-19 CNS) was 7.35 µM and the TGI (SNB-19 CNS) was over 100 µM. The GI50 (UACC-257 melanoma) was 3.58 µM, the TGI (UACC-257 melanoma) was 18.7 µM and the GI50 (SR leukemia) was 2140 nM. It also gave a TGI (SR leukemia) of 7.25 µM, a GI50 (OVCAR-3 ovarian) of 3.83 µM and a TGI (OVCAR-3 ovarian) of 13.6 µM. For the same molecule, the GI50 (HOP-92 NSCLC) was 1030 nM and the TGI (HOP-92 NSCLC) was 5.99 µM.
